From the supplement of paper PMC10307832

Legend:
Test in all cases: relative viability (nuclei count vs DMSO), 5 days (fraction); higher = more cells survive
R406 + Navitoclax = compound: COc1cc(Nc2ncc(F)c(Nc3ccc4c(n3)NC(=O)C(C)(C)O4)n2)cc(OC)c1OC [R406] + CC1(C)CCC(c2ccc(Cl)cc2)=C(CN2CCN(c3ccc(C(=O)NS(=O)(=O)c4ccc(N[C@H](CCN5CCOCC5)CSc5ccccc5)c(S(=O)(=O)C(F)(F)F)c4)cc3)CC2)C1 [Navitoclax] (partner 0.5 µM)
Method in brief: (§1)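 Relative viability divides the nuclei count in treated wells by that in vehicle wells. Lung cancer cell lines were seeded in 1536-well plates, dosed by pin tool the next day, and fixed and stained after 5 days in one step with final 0.05% Triton X-100, 1% formaldehyde and 1 ug/ml Hoechst. Dosing was a single drug or a fixed anchor-drug dose plus five library-drug doses (not always all listed) in √10 steps, and values are medians of duplicate plates imaged at 4×.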

Daporinad + Phenformin = compound: O=C(/C=C/c1cccnc1)NCCCCC1CCN(C(=O)c2ccccc2)CC1 [Daporinad] + N=C(N)NC(=N)NCCc1ccccc1 [Phenformin] (partner 250 µM)
Method in brief: as §1

R406 + Bortezomib = compound: COc1cc(Nc2ncc(F)c(Nc3ccc4c(n3)NC(=O)C(C)(C)O4)n2)cc(OC)c1OC [R406] + CC(C)C[C@H](NC(=O)[C@H](Cc1ccccc1)NC(=O)c1cnccn1)B(O)O [Bortezomib] (partner 0.002 µM)
Method in brief: as §1

R406 + Pemetrexed = compound: COc1cc(Nc2ncc(F)c(Nc3ccc4c(n3)NC(=O)C(C)(C)O4)n2)cc(OC)c1OC [R406] + Nc1nc2[nH]cc(CCc3ccc(C(=O)N[C@@H](CCC(=O)O)C(=O)O)cc3)c2c(=O)[nH]1 [Pemetrexed] (partner 0.2 µM)
Method in brief: as §1

NCI-H520
relative viability (R406 + Navitoclax; first compound 0.08 µM): 1.02 | relative viability (R406 + Navitoclax; first compound 0.253 µM): 1.09 | relative viability (R406 + Navitoclax; first compound 0.8 µM): 1.05 | relative viability (R406 + Navitoclax; first compound 2.53 µM): 0.636 | relative viability (R406 + Navitoclax; first compound 8 µM): 0.251 | relative viability (Daporinad + Phenformin; first compound 0.0005 µM): 0.554 | relative viability (Daporinad + Phenformin; first compound 0.001581 µM): 0.286 | relative viability (Daporinad + Phenformin; first compound 0.005 µM): 0.187 | relative viability (Daporinad + Phenformin; first compound 0.01581 µM): 0.22 | relative viability (R406 + Bortezomib; first compound 0.08 µM): 0.604 | relative viability (R406 + Bortezomib; first compound 0.253 µM): 0.804 | relative viability (R406 + Bortezomib; first compound 0.8 µM): 0.971 | relative viability (R406 + Bortezomib; first compound 2.53 µM): 0.209 | relative viability (R406 + Bortezomib; first compound 8 µM): 0.157 | relative viability (R406 + Pemetrexed; first compound 0.08 µM): 0.698 | relative viability (R406 + Pemetrexed; first compound 0.253 µM): 0.724 | relative viability (R406 + Pemetrexed; first compound 0.8 µM): 0.675 | relative viability (R406 + Pemetrexed; first compound 2.53 µM): 0.285 | relative viability (R406 + Pemetrexed; first compound 8 µM): 0.153

NCI-H596
relative viability (R406 + Navitoclax; first compound 0.08 µM): 0.836 | relative viability (R406 + Navitoclax; first compound 0.253 µM): 1.04 | relative viability (R406 + Navitoclax; first compound 0.8 µM): 1.16 | relative viability (R406 + Navitoclax; first compound 2.53 µM): 0.72 | relative viability (R406 + Navitoclax; first compound 8 µM): 0.115 | relative viability (Daporinad + Phenformin; first compound 0.0005 µM): 0.627 | relative viability (Daporinad + Phenformin; first compound 0.001581 µM): 0.749 | relative viability (Daporinad + Phenformin; first compound 0.005 µM): 0.774 | relative viability (Daporinad + Phenformin; first compound 0.01581 µM): 0.746 | relative viability (R406 + Bortezomib; first compound 0.08 µM): 1.1 | relative viability (R406 + Bortezomib; first compound 0.253 µM): 1.28 | relative viability (R406 + Bortezomib; first compound 0.8 µM): 0.758 | relative viability (R406 + Bortezomib; first compound 2.53 µM): 0.984 | relative viability (R406 + Bortezomib; first compound 8 µM): 0.475 | relative viability (R406 + Pemetrexed; first compound 0.08 µM): 0.527 | relative viability (R406 + Pemetrexed; first compound 0.253 µM): 0.554 | relative viability (R406 + Pemetrexed; first compound 0.8 µM): 0.428 | relative viability (R406 + Pemetrexed; first compound 2.53 µM): 0.392 | relative viability (R406 + Pemetrexed; first compound 8 µM): 0.324

NCI-H647
relative viability (R406 + Navitoclax; first compound 0.08 µM): 1.04 | relative viability (R406 + Navitoclax; first compound 0.253 µM): 1.29 | relative viability (R406 + Navitoclax; first compound 0.8 µM): 1.18 | relative viability (R406 + Navitoclax; first compound 2.53 µM): 0.562 | relative viability (R406 + Navitoclax; first compound 8 µM): 0.467 | relative viability (Daporinad + Phenformin; first compound 0.0005 µM): 0.534 | relative viability (Daporinad + Phenformin; first compound 0.001581 µM): 0.65 | relative viability (Daporinad + Phenformin; first compound 0.005 µM): 0.641 | relative viability (Daporinad + Phenformin; first compound 0.01581 µM): 0.643 | relative viability (R406 + Bortezomib; first compound 0.08 µM): 0.89 | relative viability (R406 + Bortezomib; first compound 0.253 µM): 1.02 | relative viability (R406 + Bortezomib; first compound 0.8 µM): 1.59 | relative viability (R406 + Bortezomib; first compound 2.53 µM): 0.0846 | relative viability (R406 + Bortezomib; first compound 8 µM): 0.188 | relative viability (R406 + Pemetrexed; first compound 0.08 µM): 0.172 | relative viability (R406 + Pemetrexed; first compound 0.253 µM): 0.178 | relative viability (R406 + Pemetrexed; first compound 0.8 µM): 0.17 | relative viability (R406 + Pemetrexed; first compound 2.53 µM): 0.0932 | relative viability (R406 + Pemetrexed; first compound 8 µM): 0.0585

NCI-H838
relative viability (R406 + Navitoclax; first compound 0.08 µM): 1.14 | relative viability (R406 + Navitoclax; first compound 0.253 µM): 1.23 | relative viability (R406 + Navitoclax; first compound 0.8 µM): 1.34 | relative viability (R406 + Navitoclax; first compound 2.53 µM): 0.802 | relative viability (R406 + Navitoclax; first compound 8 µM): 0.305 | relative viability (Daporinad + Phenformin; first compound 0.0005 µM): 0.551 | relative viability (Daporinad + Phenformin; first compound 0.001581 µM): 0.799 | relative viability (Daporinad + Phenformin; first compound 0.005 µM): 0.542 | relative viability (Daporinad + Phenformin; first compound 0.01581 µM): 0.415 | relative viability (R406 + Bortezomib; first compound 0.08 µM): 0.709 | relative viability (R406 + Bortezomib; first compound 0.253 µM): 1.46 | relative viability (R406 + Bortezomib; first compound 0.8 µM): 1.01 | relative viability (R406 + Bortezomib; first compound 2.53 µM): 0.11 | relative viability (R406 + Bortezomib; first compound 8 µM): 0.153 | relative viability (R406 + Pemetrexed; first compound 0.08 µM): 0.257 | relative viability (R406 + Pemetrexed; first compound 0.253 µM): 0.268 | relative viability (R406 + Pemetrexed; first compound 0.8 µM): 0.244 | relative viability (R406 + Pemetrexed; first compound 2.53 µM): 0.226 | relative viability (R406 + Pemetrexed; first compound 8 µM): 0.136

NCI-H1355
relative viability (R406 + Navitoclax; first compound 0.08 µM): 1.05 | relative viability (R406 + Navitoclax; first compound 0.253 µM): 0.94 | relative viability (R406 + Navitoclax; first compound 0.8 µM): 1.08 | relative viability (R406 + Navitoclax; first compound 2.53 µM): 0.542 | relative viability (R406 + Navitoclax; first compound 8 µM): 0.648 | relative viability (Daporinad + Phenformin; first compound 0.0005 µM): 0.454 | relative viability (Daporinad + Phenformin; first compound 0.001581 µM): 0.506 | relative viability (Daporinad + Phenformin; first compound 0.005 µM): 0.542 | relative viability (Daporinad + Phenformin; first compound 0.01581 µM): 0.508 | relative viability (R406 + Bortezomib; first compound 0.08 µM): 1.23 | relative viability (R406 + Bortezomib; first compound 0.253 µM): 1.29 | relative viability (R406 + Bortezomib; first compound 0.8 µM): 1.44 | relative viability (R406 + Bortezomib; first compound 2.53 µM): 1.02 | relative viability (R406 + Bortezomib; first compound 8 µM): 0.957 | relative viability (R406 + Pemetrexed; first compound 0.08 µM): 1.09 | relative viability (R406 + Pemetrexed; first compound 0.253 µM): 1.09 | relative viability (R406 + Pemetrexed; first compound 0.8 µM): 1.09 | relative viability (R406 + Pemetrexed; first compound 2.53 µM): 0.982 | relative viability (R406 + Pemetrexed; first compound 8 µM): 0.911

NCI-H1437
relative viability (R406 + Navitoclax; first compound 0.08 µM): 1.1 | relative viability (R406 + Navitoclax; first compound 0.253 µM): 1.16 | relative viability (R406 + Navitoclax; first compound 0.8 µM): 1.1 | relative viability (R406 + Navitoclax; first compound 2.53 µM): 0.997 | relative viability (R406 + Navitoclax; first compound 8 µM): 0.725 | relative viability (Daporinad + Phenformin; first compound 0.0005 µM): 0.349 | relative viability (Daporinad + Phenformin; first compound 0.001581 µM): 0.325 | relative viability (Daporinad + Phenformin; first compound 0.005 µM): 0.349 | relative viability (Daporinad + Phenformin; first compound 0.01581 µM): 0.362 | relative viability (R406 + Bortezomib; first compound 0.08 µM): 0.392 | relative viability (R406 + Bortezomib; first compound 0.253 µM): 0.768 | relative viability (R406 + Bortezomib; first compound 0.8 µM): 0.675 | relative viability (R406 + Bortezomib; first compound 2.53 µM): 0.259 | relative viability (R406 + Bortezomib; first compound 8 µM): 0.226 | relative viability (R406 + Pemetrexed; first compound 0.08 µM): 0.297 | relative viability (R406 + Pemetrexed; first compound 0.253 µM): 0.316 | relative viability (R406 + Pemetrexed; first compound 0.8 µM): 0.317 | relative viability (R406 + Pemetrexed; first compound 2.53 µM): 0.259 | relative viability (R406 + Pemetrexed; first compound 8 µM): 0.203

NCI-H1650
relative viability (R406 + Navitoclax; first compound 0.08 µM): 1.3 | relative viability (R406 + Navitoclax; first compound 0.253 µM): 1.15 | relative viability (R406 + Navitoclax; first compound 0.8 µM): 1.5 | relative viability (R406 + Navitoclax; first compound 2.53 µM): 1.24 | relative viability (R406 + Navitoclax; first compound 8 µM): 0.747 | relative viability (Daporinad + Phenformin; first compound 0.0005 µM): 0.406 | relative viability (Daporinad + Phenformin; first compound 0.001581 µM): 0.55 | relative viability (Daporinad + Phenformin; first compound 0.005 µM): 0.416 | relative viability (Daporinad + Phenformin; first compound 0.01581 µM): 0.223 | relative viability (R406 + Bortezomib; first compound 0.08 µM): 0.244 | relative viability (R406 + Bortezomib; first compound 0.253 µM): 0.214 | relative viability (R406 + Bortezomib; first compound 0.8 µM): 0.18 | relative viability (R406 + Bortezomib; first compound 2.53 µM): 0.208 | relative viability (R406 + Bortezomib; first compound 8 µM): 0.197 | relative viability (R406 + Pemetrexed; first compound 0.08 µM): 0.355 | relative viability (R406 + Pemetrexed; first compound 0.253 µM): 0.408 | relative viability (R406 + Pemetrexed; first compound 0.8 µM): 0.37 | relative viability (R406 + Pemetrexed; first compound 2.53 µM): 0.291 | relative viability (R406 + Pemetrexed; first compound 8 µM): 0.358

NCI-H1651
relative viability (R406 + Navitoclax; first compound 0.08 µM): 1.08 | relative viability (R406 + Navitoclax; first compound 0.253 µM): 1.29 | relative viability (R406 + Navitoclax; first compound 0.8 µM): 0.961 | relative viability (R406 + Navitoclax; first compound 2.53 µM): 0.769 | relative viability (R406 + Navitoclax; first compound 8 µM): 0.463 | relative viability (Daporinad + Phenformin; first compound 0.0005 µM): 0.299 | relative viability (Daporinad + Phenformin; first compound 0.001581 µM): 0.381 | relative viability (Daporinad + Phenformin; first compound 0.005 µM): 0.433 | relative viability (Daporinad + Phenformin; first compound 0.01581 µM): 0.329 | relative viability (R406 + Bortezomib; first compound 0.08 µM): 0.921 | relative viability (R406 + Bortezomib; first compound 0.253 µM): 1.06 | relative viability (R406 + Bortezomib; first compound 0.8 µM): 0.9 | relative viability (R406 + Bortezomib; first compound 2.53 µM): 0.935 | relative viability (R406 + Bortezomib; first compound 8 µM): 0.948 | relative viability (R406 + Pemetrexed; first compound 0.08 µM): 0.475 | relative viability (R406 + Pemetrexed; first compound 0.253 µM): 0.679 | relative viability (R406 + Pemetrexed; first compound 0.8 µM): 0.573 | relative viability (R406 + Pemetrexed; first compound 2.53 µM): 0.548 | relative viability (R406 + Pemetrexed; first compound 8 µM): 0.508
